# Test results from EP0184291B1, “Polyether antibiotic A80190” (ELI LILLY AND COMPANY, priority 1984, dated 1986).
# Several values for one entry are separate records, joined by “and”; a condition that tells them apart may be missing. Equal entries are not always repeated. Marks after values point to notes of the source that are not given here.
# Key:
# Mexican bean beetle = assay: Insecticidal activity; format: in vivo; conditions: Epilachna varivestis; read-out: active at levels as low as
# Description: (§1) The A80190 compounds are also useful as insecticides and acaricides. For example, A80190 is active against the following insects as levels as low as the level indicated in parenthesis: mosquito larvae (<50 ppm), blowfly larvae (35 ppm), adult housefly (35 ppm), and Mexican bean beetle and southern armyworm (<100 ppm). A80190 is also active against mites such as two-spotted spider mite when applied at a rate as low as 25 ppm.
# southern armyworm = assay: Insecticidal activity; format: in vivo; conditions: Spodoptera eridania; read-out: active at levels as low as
# Description: as §1
# mosquito larvae = assay: Insecticidal activity; format: in vivo; conditions: read-out: active at levels as low as
# Description: as §1
# blowfly larvae = assay: Insecticidal activity; format: in vivo; conditions: read-out: active at levels as low as
# Description: as §1
# adult housefly = assay: Insecticidal activity; format: in vivo; conditions: Musca domestica; read-out: active at levels as low as
# Description: as §1
# [1] = test system: Eimeria acervulina (Lilly strain 59), Eimeria maxima (strain FS-177) and Eimeria tenella (strain FS-155); assay: Coccidiosis test in broiler chicks, A80190 with nicarbazin (Test 1); format: in vivo; conditions: Nicarbazin 0 p.p.m. in ration
# [2] = test system: volatile-fatty-acid (VFA) concentrations; assay: Ruminant feed-utilization efficiency test (VFA in flasks, method of U.S. Patent 3,794,732); design: species or system ruminants; conditions: ratio treated flasks to control flasks
# Description: The efficiency of feed use can be monitored by observing the production and concentration of propionate compounds in the rumen using the method described by Arthur P. Raun in U.S. Patent 3,794,732 (see especially Example 5).
# pKa determination = format: physicochemical; conditions: 66% aqueous dimethylformamide; free acid form
# Description: Antibiotic A80190 has been assigned structure 1 based on X-ray crystallographic studies.
# pigweed = assay: Herbicidal activity; format: in vivo; conditions: 2 lb/acre (200 gpa), either pre-emergence or post-emergence
# Description: (§2) In another aspect, the A80190 compounds have herbicidal activity. For example, A80190 is active against crabgrass, mustard and pigweed at 2 lb/acre (200 gpa) either pre-emergence or post-emergence.
# crabgrass = assay: Herbicidal activity; format: in vivo; conditions: 2 lb/acre (200 gpa), either pre-emergence or post-emergence
# Description: as §2
# mustard = assay: Herbicidal activity; format: in vivo; conditions: 2 lb/acre (200 gpa), either pre-emergence or post-emergence
# Description: as §2
# [3] = Ion-transport (ionophore) test
# two-spotted spider mite = assay: Acaricidal activity; format: in vivo; conditions: Tetranychus urticae; read-out: active when applied at a rate as low as
# Description: as §1
# [4] = test system: Clostridium perfringens 81; assay: microbe, parasite or virus in culture; format: cell-based; conditions: Clostridium perfringens, 81, 24 h
# [5] = test system: Bacteroides fragilis 1936B; assay: Agar-dilution assay, anaerobic bacteria; format: cell-based; conditions: 24-hour incubation
# Description: (§3) One important aspect of the antimicrobial activity of A80190 compounds relates to their activity against anaerobic bacteria. The minimal inhibitory concentrations (MIC's) at which A80190 inhibits various anaerobic bacteria, as determined by standard agar-dilution assay, are summarized in Table VII. End points were read after 24-hour incubation.
# Bacteroides fragilis 111 = assay: Agar-dilution assay, anaerobic bacteria; format: cell-based; conditions: 24-hour incubation
# Description: as §3
# [6] = test system: Clostridium difficile 2994; assay: Agar-dilution assay, anaerobic bacteria; format: cell-based; conditions: Clostridioides difficile, 24-hour incubation
# Description: as §3
# [7] = test system: Clostridium septicum 1128; assay: Agar-dilution assay, anaerobic bacteria; format: cell-based; conditions: 24-hour incubation
# Description: as §3
# Petococcus prevoti 1281 = assay: Agar-dilution assay, anaerobic bacteria; format: cell-based; conditions: 24-hour incubation
# Description: as §3
# [8] = test system: Eubacterium aerofaciens 1235; assay: Agar-dilution assay, anaerobic bacteria; format: cell-based; conditions: Collinsella aerofaciens, 24-hour incubation
# Description: as §3
# [9] = test system: Bacteroides thetaiotaomicron 1438; assay: Agar-dilution assay, anaerobic bacteria; format: cell-based; conditions: 24-hour incubation
# Description: as §3
# [10] = test system: Fusobacterium necrophorum 6054A; assay: Agar-dilution assay, anaerobic bacteria; format: cell-based; conditions: 24-hour incubation
# Description: as §3
# [11] = test system: Bacteroides vulgatis 1211; assay: Agar-dilution assay, anaerobic bacteria; format: cell-based; conditions: 24-hour incubation
# Description: as §3
# [12] = test system: Bacteroides fragilis 1877; assay: Agar-dilution assay, anaerobic bacteria; format: cell-based; conditions: 24-hour incubation
# Description: as §3
# [13] = test system: Bacteroides melaninogenicus 2736; assay: Agar-dilution assay, anaerobic bacteria; format: cell-based; conditions: 24-hour incubation
# Description: as §3
# [14] = test system: Peptostreptococcus anaerobius 1428; assay: Agar-dilution assay, anaerobic bacteria; format: cell-based; conditions: 24-hour incubation
# Description: as §3
# [15] = test system: Propionibacterium acnes 79; assay: Agar-dilution assay, anaerobic bacteria; format: cell-based; conditions: Cutibacterium acnes, 24-hour incubation
# Description: as §3
# [16] = test system: Bacteroides melaninogenicus 1856/28; assay: Agar-dilution assay, anaerobic bacteria; format: cell-based; conditions: Prevotella intermedia, 24-hour incubation
# Description: as §3
# [17] = test system: Peptococcus asaccharolyticus 1302; assay: Agar-dilution assay, anaerobic bacteria; format: cell-based; conditions: Peptoniphilus asaccharolyticus, 24-hour incubation
# Description: as §3
# [18] = test system: Fusobacterium symbiosum 1470; assay: Agar-dilution assay, anaerobic bacteria; format: cell-based; conditions: 24-hour incubation
# Description: as §3
# [19] = test system: Peptostreptococcus intermedius 1624; assay: Agar-dilution assay, anaerobic bacteria; format: cell-based; conditions: 24-hour incubation
# Description: as §3
# [20] = test system: Bacteroides corrodens 1874; assay: Agar-dilution assay, anaerobic bacteria; format: cell-based; conditions: Eikenella corrodens, 24-hour incubation
# Description: as §3
structure (smiles),measurement,setting,value
CC[C@@H](O)[C@]1(C)C[C@H](C)[C@@](O)([C@H]2C[C@H](C)[C@H]([C@]3(C)C[C@@H](O[C@H]4CC[C@H](OC)[C@@H](C)O4)[C@H]([C@@H]4CC[C@@]5(O[C@H]([C@@H](C)[C@@H](OC)[C@H](C)C(=O)O)[C@H](C)[C@@H](OC)[C@H]5C)O4)O3)O2)O1 [Example A80190],minimal effective concentration,Mexican bean beetle,< 100 µg/mL
same,minimal effective concentration,southern armyworm,< 100 µg/mL
same,minimal effective concentration,mosquito larvae,< 50 µg/mL
same,minimal effective concentration,blowfly larvae,35 µg/mL
same,minimal effective concentration,adult housefly,35 µg/mL
same,CECAL LESION SCORES,[1]; A80190 4 p.p.m.,2.63
same,INTESTINAL LESION SCORES,[1]; A80190 4 p.p.m.,8.63
same,WEIGHT GAIN,[1]; A80190 4 p.p.m.,236 grams/per chicken
same,CECAL LESION SCORES,[1]; A80190 8 p.p.m.,1.75
same,INTESTINAL LESION SCORES,[1]; A80190 8 p.p.m.,5.94
same,WEIGHT GAIN,[1]; A80190 8 p.p.m.,265 grams/per chicken
same,CECAL LESION SCORES,[1]; A80190 12 p.p.m.,1.19
same,INTESTINAL LESION SCORES,[1]; A80190 12 p.p.m.,3.50
same,WEIGHT GAIN,[1]; A80190 12 p.p.m.,251 grams/per chicken
same,CECAL LESION SCORES,[1]; A80190 16 p.p.m.,0.19
same,INTESTINAL LESION SCORES,[1]; A80190 16 p.p.m.,1.19
same,WEIGHT GAIN,[1]; A80190 16 p.p.m.,272 grams/per chicken
same,CECAL LESION SCORES,[1]; A80190 20 p.p.m.,0.0
same,INTESTINAL LESION SCORES,[1]; A80190 20 p.p.m.,0.0
same,WEIGHT GAIN,[1]; A80190 20 p.p.m.,261 grams/per chicken
same,Molar % Acetate,[2]; Dosage 0.3 mcg/ml,0.970
same,Molar % Butyrate,[2]; Dosage 0.3 mcg/ml,0.819
same,Molar % Propionate,[2]; Dosage 0.3 mcg/ml,1.220*
same,Total VFA/ Control VFA mM/L,[2]; Dosage 0.3 mcg/ml,0.967
same,Molar % Acetate,[2]; Dosage 1 mcg/ml,0.926 and 0.986 and 0.892 and 1.016
same,Molar % Butyrate,[2]; Dosage 1 mcg/ml,0.529 and 0.851 and 0.813 and 0.706
same,Molar % Propionate,[2]; Dosage 1 mcg/ml,1.566* and 1.185* and 1.403* and 1.247*
same,Total VFA/ Control VFA mM/L,[2]; Dosage 1 mcg/ml,0.913 and 0.916 and 0.887 and 0.857
same,Molar % Acetate,[2]; Dosage 3 mcg/ml,0.998
same,Molar % Butyrate,[2]; Dosage 3 mcg/ml,0.611
same,Molar % Propionate,[2]; Dosage 3 mcg/ml,1.368*
same,Total VFA/ Control VFA mM/L,[2]; Dosage 3 mcg/ml,0.963
same,pKa,pKa determination,6.2
same,herbicidal activity,pigweed,active
same,herbicidal activity,crabgrass,active
same,herbicidal activity,mustard,active
same,"ionophorous effect, comparison of cations",[3]; 0.2 µg/ml concentration,even greater ionophorous effect with Cs⁺ than with Na⁺
same,ionophorous activity,[3]; 0.5 µg/ml concentration,showed ionophorous activity
same,"ionophorous activity, comparison of cations",[3]; 0.5 µg/ml concentration,"its activity with Na⁺, K⁺ and Rb⁺ was better than that with Cs⁺ or Li⁺"
same,minimal effective concentration,two-spotted spider mite,25 µg/mL
same,MIC,[4],< 0.5 µg/mL
same,MIC,[5],> 128 µg/mL
same,MIC,Bacteroides fragilis 111,> 128 µg/mL
same,MIC,[6],< 0.5 µg/mL
same,MIC,[7],< 0.5 µg/mL
same,MIC,Petococcus prevoti 1281,< 0.5 µg/mL
same,MIC,[8],< 0.5 µg/mL
same,MIC,[9],> 128 µg/mL
same,MIC,[10],16 µg/mL
same,MIC,[11],16 µg/mL
same,MIC,[12],> 128 µg/mL
same,MIC,[13],> 128 µg/mL
same,MIC,[14],1 µg/mL
same,MIC,[15],1 µg/mL
same,MIC,[16],> 128 µg/mL
same,MIC,[17],1 µg/mL
same,MIC,[18],8 µg/mL
same,MIC,[19],1 µg/mL
same,MIC,[20],> 128 µg/mL
